According to patent US6596477B1, “Treatment and prevention of immunodeficiency virus infection by administration of non-pyrogenic derivatives of lipid A” (University of Maryland Biotechnology Institute, priority 1998, dated 2003):

What was measured:
mice [1] = conditions: cited from earlier work
HIV-1 [2] = conditions: AIDS patients; cited from earlier work
HIV-1 [3] = conditions: alone; cited from earlier work
HIV-1BAL = HIV-1BAL replication (p24 ELISA) in human PBMC-derived monocytes pretreated 24 hours; type: cell-based; conditions: 1000, 100 and 10 ng/ml for 24 hours; 19 days after infection; FIG. 5
Description: To investigate the utility of the aforementioned findings, we investigated whether commercially available synthetic lipid IVA (ICN Inc.) suppressed the replication of HIV-1BAL in human PBMC-derived monocytes. Therefore, PBMCs were obtained as outlined in Section 6, see above, and placed into 12 well culture flat-bottom plate and incubated in CM (see example 1) for 12 days at 37° C. in 5% Co2. Non-adherent cells were removed and the cells were given fresh media every 2 days. After 6 days, the adherent PBMCs were treated with synthetic lipid IVA at 1000 ng/ml, 100 ng/ml and 10 ng/ml for 24 hours. The treated cells were subsequently infected with 0.200 ng of HIV-1BAL (Cocchi et al, supra) for 2 hours, washed twice and incubated for a further 19 days. Culture supernatants were then collected and the level of p24 in these supernatants was measured by ELISA (R&D Systems).
PBMC-derived monocytes were obtained as outlined in Section 8, see above. […] The treated cells were subsequently infected with 0.200 ng of HIV-1BAL (Cocchi et al., supra) for 2 hours, washed twice and incubated for a further 19 days. Culture supernatants were then collected and the level of p24 in these supernatants was measured by ELISA (R&D Systems).

human PBMCs [4] = experiment: β chemokine (MIP-1α, MIP-1β, RANTES) secretion from human PBMCs, dose and time course, capture ELISA; type: cell-based
human PBMCs [5] = experiment: human PBMC activation assay: proinflammatory cytokines (TNFα, IL-1β, IL-6) in supernatants by capture ELISA; type: cell-based; conditions: 1 μg/ml; 8 hr
Description: 50 ml of whole blood is mixed with an equal volume of RPMI (Life Technologies) and PBMCs are isolated by density gradient using lymphocyte separation medium according to the manufacturer's directions (Organon). The PBMCs are washed twice with RPMI then resuspended in 6 ml of ice cold sterile water and placed on ice for 30 sec to lyse the erythrocytes. The osmolarity is adjusted by adding 2 ml of ice cold 3.5% (w/v) NaCl; the PBMCs are harvested by centrifugation, washed with RPMI and resuspended in complete medium (CM; RPMI containing pyruvate, glutamine, PenStrep, and 10% endotoxin-free human AB serum (Life Technologies) at a density of 6×10^6 PBMCs/ml. CM containing the preparations to be assayed are placed into duplicate wells of a 96-well flat bottom culture late (Costar) at double the target final concentration. An equal volume of CM containing the PBMCs then is added to these wells and the culture plates are incubated at 37° C. in 5% CO2 for 8 hr. The supernatants are then removed and stored at 70° C. Quantitation of TNFα, IL-1β, IL-6, MIP-1α, MIP-1β and RANTES in these culture supernatants is achieved by capture ELISA (R&D Systems).

human PBMCs [6] = experiment: LPS antagonist test: TNFα from human PBMCs stimulated with W3110 LPS mixed with antagonist; type: cell-based; conditions: 1 μg/ml mixed with W3110 LPS 10 ng/ml; 8 hr
Description: Quantitation of TNFα, IL-1β, IL-6, MIP-1α and MIP-1β in these culture supernatants was achieved by capture ELISA (R&D Systems).
W3110 LPS (also cultured at 37° C.) from 1 ng/ml to 100 ng/ml alone and W3110 LPS (10 ng/ml) mixed with synthetic lipid IVA (1 μg/ml) were used as controls.

mice [7] = conditions: cited from earlier work; remark: listed apart in the source

2,3-diacyl-glucosamine-1-phosphate [lipid X]
pyrogenicity / toxicity in mice (mice [1]): non-pyrogenic in mice

CC(C)c1nc(CN(C)C(=O)N[C@H](C(=O)N[C@@H](Cc2ccccc2)C[C@H](O)[C@H](Cc2ccccc2)NC(=O)OCc2cncs2)C(C)C)cs1 [ABT-538]
CD4 lymphocyte counts (HIV-1 [2]): CD4 lymphocyte counts to rise substantially | plasma HIV-1 levels (HIV-1 [2]): causes plasma HIV-1 levels to decrease exponentially

Cc1cn([C@H]2C[C@H](N=[N+]=[N-])[C@@H](CO)O2)c(=O)[nH]c1=O [AZT, 3′-azido-2′,3′-dideoxythymidine]
effect on viral load (HIV-1 [3]): about 1 log reduction

CCCCCCCCCCC[C@@H](O)CC(=O)N[C@H]1[C@H](OC[C@H]2O[C@H](OP(=O)(O)O)[C@H](NC(=O)C[C@H](O)CCCCCCCCCCC)[C@@H](OC(=O)C[C@H](O)CCCCCCCCCCC)[C@@H]2O)O[C@H](CO)[C@@H](OP(=O)(O)O)[C@@H]1OC(=O)C[C@H](O)CCCCCCCCCCC [Lipid IVA]
replication of HIV-1BAL (p24) in PBMC-derived monocytes (HIV-1BAL): suppresses the replication of HIV-1^BAL in a dose-dependent manner | induction of β chemokines (human PBMCs [4]): without Inducing Measurable Levels of β Chemokines | pyrogenicity / toxicity in mice (mice [1]): displays similar toxicity of that of lipid A in mice | IL-1β in human PBMC culture supernatants after stimulation with LPS (human PBMCs [5]): 13 ± 1 pg/mL | IL-6 in human PBMC culture supernatants after stimulation with LPS (human PBMCs [5]): 7581 ± 20 pg/mL | TNFα (human PBMCs [6]): <30 pg/mL

CCCCCC/C=C/CCCCCC(=O)O[C@H](CCCCCCCCCCC)CC(=O)NC1C(OCC2OC(OP(=O)(O)O)C(NC(=O)CC(=O)CCCCCCCCCCC)C(OC(=O)C[C@H](O)CCCCCCC)C2O)OC(CO)C(OP(=O)(O)O)C1OC(=O)C[C@H](O)CCCCCCC (stereo partly drawn) [RsDPLA, R. sphaeroides diphosphoryl lipid A]
level of RANTES after stimulation (human PBMCs [4]; FIG. 3): not significantly elevated | time of peak production of MIP-1α and MIP-1β after stimulation (human PBMCs [4]; supernatants at 8, 16, 24, 48 hr, FIG. 3): 24 h | MIP-1α secretion (human PBMCs [4]; various doses, FIG. 2): stimulated the secretion of MIP-1α and MIP-1β in a dose-dependent manner | MIP-1β secretion (human PBMCs [4]; various doses, FIG. 2): stimulated the secretion of MIP-1α and MIP-1β in a dose-dependent manner

R. sphaeroides lipid A [RSLA]
LPS induced lethality (mice [7]): prevents LPS induced lethality in mice
